Structures are written as SMILES. Structures can show the parent of a compound that is named as a salt.

This is an account of results in patent publication US11466016B2, “Pharmaceutical compounds” (priority 2018, dated 2022).

SHP2, sequence (Q06124 whole entry): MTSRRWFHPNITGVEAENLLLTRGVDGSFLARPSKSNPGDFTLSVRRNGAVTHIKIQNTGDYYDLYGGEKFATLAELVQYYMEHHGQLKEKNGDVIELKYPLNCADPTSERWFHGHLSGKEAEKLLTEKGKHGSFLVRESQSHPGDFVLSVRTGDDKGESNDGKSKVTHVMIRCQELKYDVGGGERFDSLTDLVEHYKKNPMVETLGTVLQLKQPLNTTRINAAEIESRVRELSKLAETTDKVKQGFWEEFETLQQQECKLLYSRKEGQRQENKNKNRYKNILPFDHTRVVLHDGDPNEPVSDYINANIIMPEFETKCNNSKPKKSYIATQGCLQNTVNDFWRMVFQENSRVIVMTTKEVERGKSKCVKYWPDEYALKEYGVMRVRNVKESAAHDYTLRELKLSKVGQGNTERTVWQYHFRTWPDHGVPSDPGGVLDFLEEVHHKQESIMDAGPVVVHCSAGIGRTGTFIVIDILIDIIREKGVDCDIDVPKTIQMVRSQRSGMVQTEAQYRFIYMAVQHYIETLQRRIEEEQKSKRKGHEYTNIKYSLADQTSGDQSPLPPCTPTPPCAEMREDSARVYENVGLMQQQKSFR

The first experiment addresses SHP2 (Homo sapiens (Human), UniProt Q06124). Description: SHP2 Biochemical Assay (DiFMUP conversion, pIRS1 activating peptide).
Conditions: not given
The method, then:
SHP2 activity was monitored by measuring the conversion of the surrogate substrate 6,8-difluoromethylumbelliferyl phosphate (DiFMUP) to the fluorescent product, 6,8-difluoromethylumbelliferone (DiFMU).
SHP2 was pre-incubated with test compounds and the activating peptide pIRS1 (H2N-LN(pY)IDLDLV-(PEG)8-LST(pY)ASINFQK-amide) for 30 min, prior to addition of the […] (DiFMUP), (Thermo Fisher D6567). […] Rates of reaction were then measured over 30 min by monitoring fluorescence on a BMG Pherastar reader at excitation 360 nm/emission 450 nm. IC50 values were calculated from the normalized dose-response plots using four parameter logistic curve fit.
In general, IC50 refers to the concentration at which inhibition is half-maximal. The compound `Cn1ccnc1Cn1cc2c(Cl)c(-c3c[nH]c4nc(N5[C@@H]6CC[C@H]5C[C@@H](N)C6)cnc34)ccc2n1` [Example 68, endo-8-(7-{4-chloro-2-[(1-methyl-1H-imidazol-2-yl)methyl]-2H-indazol-5-yl}-5H-pyrrolo[2,3-b]pyrazin-3-yl)-8-azabicyclo[3.2.1]octan-3-amine, trihydrochloride salt] displayed an IC50 of 21 nM.
Compound `Cc1noc(Cn2cc3c(Cl)c(-c4c[nH]c5nc(N6[C@@H]7CC[C@H]6C[C@@H](N)C7)cnc45)ccc3n2)n1` [Example 69, endo-8-(7-{4-chloro-2-[(3-methyl-1,2,4-oxadiazol-5-yl)methyl]-2H-indazol-5-yl}-5H-pyrrolo[2,3-b]pyrazin-3-yl)-8-azabicyclo[3.2.1]octan-3-amine, hydrochloride salt] returned an IC50 of 6.8 nM.
`CN1Cc2c(ccc(-c3c[nH]c4nc(N5CC[C@H](N)[C@H](F)C5)cnc34)c2Cl)C1=O` [Example 72, 5-{3-[(3R,4S)-4-amino-3-fluoropiperidin-1-yl]-5H-pyrrolo[2,3-b]pyrazin-7-yl}-4-chloro-2-methyl-2,3-dihydro-1H-isoindol-1-one, hydrochloride salt]: the “SHP2 (percent at stated concentration)” value is 50%@0.30 uM.
`Cn1cnc2ccc(-c3c[nH]c4nc(N5[C@@H]6CC[C@H]5[C@@H](F)[C@@H](N)C6)cnc34)c(Cl)c2c1=O` [Example 77, 6-{3-[(1S,2S,3S,5R)-3-amino-2-fluoro-8-azabicyclo[3.2.1]octan-8-yl]-5H-pyrrolo[2,3-b]pyrazin-7-yl}-5-chloro-3-methyl-3,4-dihydroquinazolin-4-one] yielded an IC50 of 18 nM.
In turn, `Cn1cc2c(Cl)c(-c3n[nH]c4nc(N5[C@@H]6CC[C@H]5[C@@H](F)[C@@H](N)C6)c(CO)nc34)ccc2n1` [Example 81, {6-[(1S,2S,3S,5R)-3-amino-2-fluoro-8-azabicyclo[3.2.1]octan-8-yl]-3-(4-chloro-2-methyl-2H-indazol-5-yl)-1H-pyrazolo[3,4-b]pyrazin-5-yl}methanol] returned an IC50 of 15 nM.

The same experiment, now with this note: DiFMUP substrate, 0.25 μM pIRS1 peptide, 30 min pre-incubation; average where more than one data point; read-out: SHP2 (IC50).
On to `CN(C)C(=O)c1nc2ccc(-c3c[nH]c4nc(N5[C@@H]6CC[C@H]5C[C@@H](N)C6)cnc34)c(Cl)c2s1` [Example 59, 6-{3-[endo-3-amino-8-azabicyclo[3.2.1]octan-8-yl]-5H-pyrrolo[2,3-b]pyrazin-7-yl}-7-chloro-N,N-dimethyl-1,3-benzothiazole-2-carboxamide, hydrochloride salt], for which the IC50 was 18 nM.
Still for that read-out and setting: as for `CC(C)(C)NC(=O)Cn1cc2c(Cl)c(-c3c[nH]c4nc(N5[C@@H]6CC[C@H]5C[C@@H](N)C6)cnc34)ccc2n1` [Example 60, 2-(5-{3-[endo-3-amino-8-azabicyclo[3.2.1]octan-8-yl]-5H-pyrrolo[2,3-b]pyrazin-7-yl}-4-chloro-2H-indazol-2-yl)-N-tert-butylacetamide], the figure is 12 nM; as for `Cn1nc2ccc(-c3c[nH]c4nc(N5[C@@H]6CC[C@H]5C[C@@H](N)C6)cnc34)c(Cl)c2c1CC#N` [Example 61, 2-(5-{3-[endo-3-amino-8-azabicyclo[3.2.1]octan-8-yl]-5H-pyrrolo[2,3-b]pyrazin-7-yl}-4-chloro-2-methyl-2H-indazol-3-yl)acetonitrile], 130 nM; as for `Cn1nc2ccc(-c3c[nH]c4nc(N5[C@@H]6CC[C@H]5C[C@@H](N)C6)cnc34)c(Cl)c2c1C#N` [Example 62, 5-{3-[endo-3-amino-8-azabicyclo[3.2.1]octan-8-yl]-5H-pyrrolo[2,3-b]pyrazin-7-yl}-4-chloro-2-methyl-2H-indazole-3-carbonitrile], 7.1 nM.
Still for that read-out and setting: as for `Cn1cc2c(Cl)c(-c3c[nH]c4nc(N5[C@H]6CC[C@@H]5[C@@H](F)[C@@H](N)C6)cnc34)ccc2n1` [Example 64, (1R,2S,3S,5S)-8-[7-(4-chloro-2-methyl-2H-indazol-5-yl)-5H-pyrrolo[2,3-b]pyrazin-3-yl]-2-fluoro-8-azabicyclo[3.2.1]octan-3-amine], the figure is 7.7 nM.
On the same count and under the same terms, in the case of `Cn1cc2c(Cl)c(-c3c[nH]c4nc(N5[C@@H]6CC[C@H]5[C@H](F)[C@@H](N)C6)cnc34)ccc2n1` [Example 65, (1S,2R,3S,5R)-8-[7-(4-chloro-2-methyl-2H-indazol-5-yl)-5H-pyrrolo[2,3-b]pyrazin-3-yl]-2-fluoro-8-azabicyclo[3.2.1]octan-3-amine] it was 37 nM; in that of `N[C@H]1C[C@H]2CC[C@@H](C1)N2c1cnc2c(-c3ccc4c(c3Cl)C(F)(F)C(=O)N4)c[nH]c2n1` [Example 66, 5-{3-[endo-3-amino-8-azabicyclo[3.2.1]octan-8-yl]-5H-pyrrolo[2,3-b]pyrazin-7-yl}-4-chloro-3,3-difluoro-2,3-dihydro-1H-indol-2-one, dihydrochloride salt], 4.4 nM; in that of `Cn1cc2c(Cl)c(-c3c[nH]c4nc(N5[C@H]6CC[C@@H]5[C@@H](F)[C@H](N)C6)cnc34)ccc2n1` [Example 67, (1R,2S,3R,5S)-8-[7-(4-chloro-2-methyl-2H-indazol-5-yl)-5H-pyrrolo[2,3-b]pyrazin-3-yl]-2-fluoro-8-azabicyclo[3.2.1]octan-3-amine], 57 nM.
In the case of `Cn1ccc(Cn2cc3c(Cl)c(-c4c[nH]c5nc(N6[C@@H]7CC[C@H]6C[C@@H](N)C7)cnc45)ccc3n2)n1` [Example 70, endo-8-(7-{4-chloro-2-[(1-methyl-1H-pyrazol-3-yl)methyl]-2H-indazol-5-yl}-5H-pyrrolo[2,3-b]pyrazin-3-yl)-8-azabicyclo[3.2.1]octan-3-amine, trihydrochloride salt], the IC50 amounted to 8.8 nM.
On the same count and under the same terms, as for `Cn1ccc2c(Cl)c(-c3c[nH]c4nc(N5CC[C@H](N)[C@H](F)C5)cnc34)ccc2c1=O` [Example 71, 6-{3-[(3R,4S)-4-amino-3-fluoropiperidin-1-yl]-5H-pyrrolo[2,3-b]pyrazin-7-yl}-5-chloro-2-methyl-1,2-dihydroisoquinolin-1-one, hydrochloride salt], the figure is 55 nM; as for `Cc1nc2c(-c3ccc4nn(C)cc4c3Cl)n[nH]c2nc1N1[C@H]2CC[C@@H]1[C@@H](F)[C@@H](N)C2` [Example 73, (1R,2S,3S,5S)-8-[3-(4-chloro-2-methyl-2H-indazol-5-yl)-5-methyl-1H-pyrazolo[3,4-b]pyrazin-6-yl]-2-fluoro-8-azabicyclo[3.2.1]octan-3-amine, hydrochloride salt], 9.8 nM; as for `Cn1cnc2ccc(-c3c[nH]c4nc(N5CC[C@H](N)[C@H](F)C5)cnc34)c(Cl)c21` [Example 74, (3R,4S)-1-[7-(7-chloro-1-methyl-1H-1,3-benzodiazol-6-yl)-5H-pyrrolo[2,3-b]pyrazin-3-yl]-3-fluoropiperidin-4-amine], 89 nM.
Turning to `Cc1nc2c(-c3ccc4nn(C)cc4c3Cl)n[nH]c2nc1N1CC[C@H](N)[C@H](F)C1` [Example 75, (3R,4S)-1-[3-(4-chloro-2-methyl-2H-indazol-5-yl)-5-methyl-1H-pyrazolo[3,4-b]pyrazin-6-yl]-3-fluoropiperidin-4-amine, hydrochloride], the IC50 was determined as 130 nM.
On the same count and under the same terms, as for `Cn1c(=O)sc2ccc(-c3c[nH]c4nc(N5CC[C@H](N)[C@H](F)C5)cnc34)c(Cl)c21` [Example 76, 5-{3-[(3R,4S)-4-amino-3-fluoropiperidin-1-yl]-5H-pyrrolo[2,3-b]pyrazin-7-yl}-4-chloro-3-methyl-2,3-dihydro-1,3-benzothiazol-2-one, hydrochloride], the figure is 440 nM; as for `Cn1cc2c(Cl)c(-c3n[nH]c4nc(N5[C@H]6CC[C@@H]5[C@@H](F)[C@@H](N)C6)c(CO)nc34)ccc2n1` [Example 79, {6-[(1R,2S,3S,5S)-3-amino-2-fluoro-8-azabicyclo[3.2.1]octan-8-yl]-3-(4-chloro-2-methyl-2H-indazol-5-yl)-1H-pyrazolo[3,4-b]pyrazin-5-yl}methanol], 9.1 nM.
Take `Cn1nc2ccc(-c3n[nH]c4nc(N5[C@H]6CC[C@@H]5[C@@H](F)[C@@H](N)C6)c(CO)nc34)c(Cl)c2c1Cl` [Example 80, {6-[(1R,2S,3S,5S)-3-amino-2-fluoro-8-azabicyclo[3.2.1]octan-8-yl]-3-(3,4-dichloro-2-methyl-2H-indazol-5-yl)-1H-pyrazolo[3,4-b]pyrazin-5-yl}methanol]: the IC50 was found to be 5.2 nM.
Still for that read-out and setting: as for `CCn1cc2c(Cl)c(-c3n[nH]c4nc(N5[C@H]6CC[C@@H]5[C@@H](F)[C@@H](N)C6)c(CO)nc34)ccc2n1` [Example 82, {6-[(1R,2S,3S,5S)-3-amino-2-fluoro-8-azabicyclo[3.2.1]octan-8-yl]-3-(4-chloro-2-ethyl-2H-indazol-5-yl)-1H-pyrazolo[3,4-b]pyrazin-5-yl}methanol], the figure is 12 nM; as for `Cn1nc2ccc(-c3n[nH]c4nc(N5[C@H]6CC[C@@H]5[C@@H](F)[C@@H](N)C6)c(CO)nc34)c(F)c2c1Cl` [Example 83, {6-[(1R,2S,3S,5S)-3-amino-2-fluoro-8-azabicyclo[3.2.1]octan-8-yl]-3-(3-chloro-4-fluoro-2-methyl-2H-indazol-5-yl)-1H-pyrazolo[3,4-b]pyrazin-5-yl}methanol], 8.6 nM; as for `COc1cnc2ccc(-c3n[nH]c4nc(N5[C@H]6CC[C@@H]5[C@@H](F)[C@@H](N)C6)c(CO)nc34)c(Cl)c2n1` [Example 84, {6-[(1R,2S,3S,5S)-3-amino-2-fluoro-8-azabicyclo[3.2.1]octan-8-yl]-3-(5-chloro-3-methoxyquinoxalin-6-yl)-1H-pyrazolo[3,4-b]pyrazin-5-yl}methanol], 7.4 nM.
The same measure, in the same setting: in the case of `Cn1nc2ccc(-c3n[nH]c4nc(N5[C@@H]6CC[C@H]5[C@@H](F)[C@@H](N)C6)c(CO)nc34)c(Cl)c2c1Cl` [Example 85, {6-[(1S,2S,3S,5R)-3-amino-2-fluoro-8-azabicyclo[3.2.1]octan-8-yl]-3-(3,4-dichloro-2-methyl-2H-indazol-5-yl)-1H-pyrazolo[3,4-b]pyrazin-5-yl}methanol] it was 7.5 nM.
